From PMC11524579, “PRR adjuvants restrain high stability peptides presentation on APCs” (eLife, 2024)

Legend:
[1] = system: CD4+ T-cells; assay: IFN-γ ICS of in vitro expanded peptide-specific CD4+ T-cells, peptide pool and titrated peptides; format: cell-based, BALB/c mice; details: titrated peptides, response at 50 μM taken as 100%, n=3, ICS flow cytometry; compared with ureA #2 and ureA #3
Procedure: (§1) Six- to eight-week-old SPF female BALB/c mice were immunized subcutaneously with 100 μg recombinant H pylori UreB (rUreB, purity >95%) emulsified in adjuvants CpG (20 μg/ mouse), MDP (30 μg/ mouse), and MPLA (10 μg/ mouse). Mice immunized with the same antigen without adjuvants were used as controls. Ten days later, the mice were euthanized with Carbon Dioxide (CO₂), and their spleens were harvested. Antigen-specific T-cells were expanded in vitro as described previously ([Li et al., 2015]). Briefly, the lymphocytes from spleens were isolated using a Ficoll–Hypaque (Dakewe, Shanghai, China) gradient, pulsed with 0.5 μM rUreB protein in the presence of 5 U/mL rmIL-2 (PeproTech, NJ, USA), and in vitro cultured in ‘RF-10’ medium consisting of RPMI 1640 (Gibco, CA, USA) supplemented with 10% fetal calf serum (Gibco), 1% L-glutamine, 1x 2-mercaptoethanol (Gibco), and 100 U/mL penicillin/ streptomycin. On day 5, the live cells were collected using a Ficoll–Hypaque gradient and cultured in a complete medium containing 20 U/mL rmIL-2. Half the medium was replaced when required.
Bulk-cultured T-cells were stimulated with 5 μM peptides for 5 hr in the presence of brefeldin A (BioLegend). The cells were collected and stained with specific antibodies against surface markers. […] The data were analyzed using FlowJo software (Tree Star, CA, USA). […]

[2] = system: splenocytes; assay: IFN-γ ELISpot of splenocytes from peptide-pool immunized mice; format: in vivo; details: five BALB/c mice immunized with pool of 10 peptides (50 μg each) in CFA; for IFN-γ ELISpot response, day 10 (effective phase): threshold 3x median of OVA peptide
Procedure: Six- to eight-week-old SPF female BALB/c mice were immunized subcutaneously with a pool of synthetic peptides (50 μg for each peptide) emulsified in Complete Freunds Adjuvant (Sigma-Aldrich). At 10 and 28 days post-vaccination, the mice were euthanized, and the spleens were removed for ELISpot assays.
Splenocytes (500,000 cells/well) were treated with red blood cell lysis buffer and stimulated with 5 μM peptides in triplicate in ELISpot plates (Dakewe Biotech, Shenzhen, China) for 18 hr. IFN-γ secretion was detected using capture and detection antibodies and imaged using an ELISpot & FluoroSpot Reader (Mabtech, Stockholm, Sweden). OVA peptide323–339 (ISQAVHAAHAEINEAGR) and non-stimulated wells were used as negative controls. PMA (BioGems, NJ, USA) was used as a positive control.

[3] = system: MHC-II H2-IA allele; assay: MHC-II competition-binding assay in vitro; details: competition with 0.1 μM biotin-labeled control peptide, 50 nM purified MHC-II, 37 °C 24 hr, europium fluorescence; eight concentrations, three independent experiments
[4] = system: CD4+ T-cells; assay: IFN-γ ICS screen of UreB overlapping 18mer peptides on T-cells from adjuvant-vaccinated mice; format: cell-based, BALB/c mice; details: spleens day 10, expanded in vitro, 5 μM peptide 5 hr, ICS flow cytometry; for IFN-γ response of CD4+ T-cells to UreB 18mer peptides, MDP group: T-cells from mice vaccinated with UreB + MDP; for IFN-γ response of CD4+ T-cells to UreB 18mer peptides, MDP group / IFN-γ response of CD4+ T-cells to UreB 18mer peptides, CpG group / IFN-γ response of CD4+ T-cells to UreB 18mer peptides, MPLA group: representative of three independent experiments; for IFN-γ response of CD4+ T-cells to UreB 18mer peptides, CpG group: T-cells from mice vaccinated with UreB + CpG; for IFN-γ response of CD4+ T-cells to UreB 18mer peptides, MPLA group: T-cells from mice vaccinated with UreB + MPLA
Procedure: as §1
Bulk-cultured T-cells were stimulated with 5 μM peptides for 5 hr in the presence of brefeldin A (BioLegend). The cells were collected and stained with specific antibodies against surface markers. Intracellular cytokine staining was performed after fixation. Cells were acquired using an LSRFortessa Flow Cytometer (BD Biosciences) or a Navios Flow Cytometer (Beckman Coulter, FL, USA). The data were analyzed using FlowJo software (Tree Star, CA, USA).

[5] = system: A20 cells; assay: Whole-proteome LC-MS/MS of adjuvant-treated APCs, bacterial protein abundance; format: cell-based, Mus musculus; details: A20 cells 12 hr post-adjuvant stimulation with H. pylori antigens
Procedure: (§2) A20 cells were cultured in T75 cell culture flasks (Corning, NY, USA). The expanded cells were pulsed with H. pylori lysates in combination with adjuvants MPLA, MDP, or CpG for 12 hr, collected, washed twice with sterile PBS, and divided into two fractions. One fraction, approximately 10^7 cells, was used for whole-proteome analysis. The remaining 10^8 cells were lysed in cold lysis buffer (1.0% w/v CHAPS, Protease Inhibitor tablet, and PMSF) for MHC-II complex immunoprecipitation. The cell lysates were centrifuged at 18,000×g for 20 min. The supernatant (containing the MHC–peptide complexes) was transferred into a new 1.5 mL microcentrifuge tube (Corning) containing a mixture of Sepharose CNBr-activated beads (Cytivia, Utah, USA) and 2 mg Anti-Mouse H2-IA^d/IE^d (M5/114) antibody (BioXcell, NH, USA). The immune complexes were captured on the beads by incubating on a rotor at 4℃ for 18 hr. Sequentially, the immune complexes were transferred to a polypropylene column (Bio-Rad Laboratories, Hercules, CA, USA) and washed with 10 mL buffer A (150 mM NaCl, 20 mM Tris, pH 8.0), 10 mL buffer B (400 mM NaCl, 20 mM Tris, pH 8.0), 10 mL buffer A, and 10 mL buffer C (Tris 20 mM, pH 8.0). The MHC-II–peptide complexes were eluted with 300 µL 10% glacial acetic acid (Macklin, Shanghai, China) three times. The eluate was stored at −80℃ until mass spectrometry analysis was performed.
Protein aliquots were mixed with 200 μL 8 M urea in Nanosep Centrifugal Devices (PALL) and centrifuged at 12,000×g at 20℃ for 20 min. All the centrifugation steps were performed under the same conditions, allowing for maximal concentration. Then, 200 μL 8 M urea solution with 10 mM DTT was added, and the reduction reaction was performed for 2 hr at 37°C. The solution was removed by centrifugation and 200 μL 8 M urea solution with 50 mM iodoacetamide (IAA) was added. The samples were incubated in the dark for 15 min at room temperature. The ultra-fraction tube was washed with 200 μL 8 M urea three times and 200 μL 25 mM ammonium bicarbonate three times by centrifugation at 12,000×g for 20 min at room temperature. […]

[6] = system: A20 cells; assay: MHC-II immunopeptidome (LC-MS/MS) of adjuvant-treated APCs; format: cell-based, Mus musculus
Procedure: as §2, with “performed. […]” for “performed.”

AFIDAEHALDVHYAKR [recA #23] was tested, and the “IFN-γ response of expanded CD4+ T-cells to titrated peptide” value [1] was “more robust CD4^+ T-cell responses at lower peptide concentrations”, the “IFN-γ ELISpot response, day 28 (memory phase)” value [2] was “not weaker than that of the other peptides” and the “IFN-γ ELISpot response, day 10 (effective phase)” value [2] was “positive responses”. The “Binding stability for MHC-II” value [3] was “low-stability”.
For ASMIHEVGIEAMFPDGTK [ureA #2], the “IFN-γ ELISpot response, day 10 (effective phase)” value [2] was “positive responses” and the “Binding stability for MHC-II” value [3] was “highly stable”.
In the case of “U481–U504: UreB dominant region covered by overlapping 18mer peptides (HHGKAKYDANITFVSQAAYDKGIK; UniProt P69996 481-504, looked up, fragment)”, the “IFN-γ response of CD4+ T-cells to UreB 18mer peptides, no-adjuvant group” value ([4]; T-cells from mice vaccinated with UreB without adjuvant) is reported as “dominant region”.
In the case of “U481–498: UreB overlapping 18mer peptide (HHGKAKYDANITFVSQAA; UniProt P69996 481-498, looked up, fragment)”, the “IFN-γ response of CD4+ T-cells to UreB 18mer peptides, MDP group” value [4] is reported as “dominant response”.
With “U409–426: UreB overlapping 18mer peptide (YTINPAIAHGISEYVGSV; UniProt P69996 409-426, looked up, fragment)” the “IFN-γ response of CD4+ T-cells to UreB 18mer peptides, MDP group” value [4] was “dominant response”.
KMLELANQIKTNLSAIPQ [hopZ #53] was tested, and the “IFN-γ ELISpot response, day 10 (effective phase)” value [2] was “positive responses” and the “Binding stability for MHC-II” value [3] was “highly stable”.
In the case of “U403–426: UreB region covered by overlapping 18mer peptides (KRYLSKYTINPAIAHGISEYVGSV; UniProt P69996 403-426, looked up, fragment)”, the “IFN-γ response of CD4+ T-cells to UreB 18mer peptides, CpG group” value [4] is reported as “dominant response”.
In the case of `CC(=O)N[C@@H]1[C@@H](O[C@H](C)C(=O)N[C@@H](C)C(=O)N[C@H](CCC(=O)O)C(N)=O)[C@H](O)[C@@H](CO)O[C@H]1O` [MDP], the “% H. pylori: percentage of bacterial protein abundances in the total whole proteome” value (shortened to “% H. pylori: percentage”) ([5]; sample (replicate) 1) is reported as 0.95%, the “% H. pylori: percentage” value ([5]; sample (replicate) 2) is reported as 1.04% and the “% H. pylori: percentage” value ([5]; sample (replicate) 3) is reported as 1.09%. For the same compound, the “Number of MHC peptides identified” value ([6]; A20 cells treated with adjuvant + H. pylori antigens 12 hr, 10^8 cells, MHC-II IP, LC-MS/MS, mean of n=3 biological replicates) was 3257 and the “Effect of adjuvant on peptide repertoires presented by APCs” value ([6]; A20 cells, H. pylori antigens + adjuvant 12 hr, immunopeptidome) was “not”.
In the case of “U505–522: UreB overlapping 18mer peptide (EELGLERQVLPVKNCRNI; UniProt P69996 505-522, looked up, fragment)”, the “IFN-γ response of CD4+ T-cells to UreB 18mer peptides, MPLA group” value [4] is reported as “primarily recognized”.
For “U313–330: UreB overlapping 18mer peptide (EHMDMLMVCHHLDKSIKE; UniProt P69996 313-330, looked up, fragment)”, the “IFN-γ response of CD4+ T-cells to UreB 18mer peptides, CpG group” value [4] was “dominant response” and the “IFN-γ response of CD4+ T-cells to UreB 18mer peptides, MPLA group” value [4] was “primarily recognized”.
In the case of YVEAVALISAHIMEEAR [ureA #3], the “IFN-γ ELISpot response, day 10 (effective phase)” value [2] is reported as “positive responses” and the “Binding stability for MHC-II” value [3] is reported as “highly stable”.
